Patent US20240115496A1, “A COMPOUND DRY POWDER INHALANT AND USE THEREOF” (TIANJIN UNIVERSITY OF TRADITIONAL CHINESE MEDICINE, priority 2021, published 2024)

Tests used:
[1] = Particle size distribution test, laser particle size analyzer, dry dispersion; format: physicochemical
Experimental: The particle size distribution of DPI dry powder was measured by dry dispersion method using laser particle size analyzer, and Dv10, Dv50, Dv90, VMD (Volume median diameter) and SMD (Sauter mean diameter) were determined, respectively.

[2] = system: rats having Bleo-induced pulmonary fibrosis; test: Total protein in bronchoalveolar lavage fluid (BALF), colorimetric; format: in vivo, rat; conditions: Bleo rats after 28 days of treatment, n = 6; Bleo group 17.04, normal 7.86
Experimental: (§1) 48 SPF healthy SD male rats (weight of 180-220 g) were randomly divided into 8 groups, 6 rats for each group: (1) normal group (control group): normal rearing in the animal center; (2) sham group: this group was given the same dose of air by pulmonary administration; (3) Bleo model group: 100 μL of Bleo solution with a concentration of 12.5 mg/mL was administered through the tracheal intubation, and the rats were rotated for 5 min after drug administration for use, referred to as the Bleo group or the model group in the present application; (4) Bleo+BA-DPI group: the same modeling method as the Bleo model group was used, and BA-DPI was administered through the tracheal intubation via DP-4 rat dry powder lung drug delivery device (manufacturer: Beijing YSKD Biotechnology Co.) at a dose of 9 mg/kg, 3 mg per day for 28 days; (5) Bleo+AH-DPI group (same method as 4); (6) Bleo+BA/AH-DPI group (same method as 4); (7) Bleo+tail intravenous injection group: the formulation solution was administered by tail intravenous injection at a concentration of 3 mg/ml, 9 mg/kg, for a total of 28 days, starting from the second day after the modeling; (8) Bleo+pirfenidone group: 2 ml per day at a concentration of 11.6 mg/ml was administered by gavage starting from the second day after successful modeling for 28 days. […]

[3] = system: MPO; test: Myeloperoxidase (MPO) level in serum; format: in vivo, rat; conditions: Bleo rats after 28 days, compared with Bleo group
Experimental: as §1

[4] = system: rats having Bleo-induced pulmonary fibrosis; test: Pulmonary function index assay (EMKA pulmonary function detector); format: in vivo, rat; conditions: day 28, DPI intratracheal or tail i.v. 9 mg/kg, pirfenidone gavage, daily 28 days
Experimental: 48 SPF healthy SD male rats (weight of 180-220 g) were randomly divided into 8 groups, 6 rats for each group: (1) normal group (control group): normal rearing in the animal center; (2) sham group: this group was given the same dose of air by pulmonary administration; (3) Bleo model group: 100 μL of Bleo solution with a concentration of 12.5 mg/mL was administered through the tracheal intubation, and the rats were rotated for 5 min after drug administration for use, referred to as the Bleo group or the model group in the present application; (4) Bleo+BA-DPI group: the same modeling method as the Bleo model group was used, and BA-DPI was administered through the tracheal intubation via DP-4 rat dry powder lung drug delivery device (manufacturer: Beijing YSKD Biotechnology Co.) at a dose of 9 mg/kg, 3 mg per day for 28 days; (5) Bleo+AH-DPI group (same method as 4); (6) Bleo+BA/AH-DPI group (same method as 4); (7) Bleo+tail intravenous injection group: the formulation solution was administered by tail intravenous injection at a concentration of 3 mg/ml, 9 mg/kg, for a total of 28 days, starting from the second day after the modeling; (8) Bleo+pirfenidone group: 2 ml per day at a concentration of 11.6 mg/ml was administered by gavage starting from the second day after successful modeling for 28 days.
Lung DPI dry powder administration operation: DPI powder was weighed precisely and placed in the storage room of the drug delivery device, the DP4 dry powder delivery device was installed, connected to the syringe with 1.5-2 ml of air, the rat was laid on the tracheal intubation platform after anesthesia, the rat laryngoscope was used to expose the tracheal opening, when the tracheal opening was open, the nozzle of the drug delivery device was immediately inserted through the tracheal opening to the bronchial fork, and the air was immediately pushed into the drug delivery device to push DPI fine powder into the rat's lung. The rat in sham group was pushed with 1.5-2 ml of air (not including the drug) as described above.
Various respiratory indices, including inspiratory duration (Ti), expiratory duration (Te), maximal inspiratory flow (PIF), maximal expiratory flow (PEF), tidal volume (TV), relaxation time (RT), and expiratory volume (EV), in freely moving rats were measured by EMKA pulmonary function detector at the completion of modeling on day 28.

[5] = system: SOD, MDA, LDH in rat lung tissue; test: Oxidative stress indicators (SOD, MDA, LDH) in lung tissue homogenates; format: in vivo; conditions: Bleo rats after 28 days, compared with Bleo group
Experimental: as §1
Oxidative stress played an important role in the process of Bleo-induced pulmonary fibrosis. […] Therefore, in the application, SOD was measured in conjunction with MDA in order to observe the role in pulmonary fibrosis. […]

[6] = system: rats having Bleo-induced pulmonary fibrosis; test: HE staining of rat lung tissue; format: in vivo; conditions: Bleo rats after 28 days, compared with Bleo model group
Experimental: as §1

[7] = system: rats having Bleo-induced pulmonary fibrosis; test: Determination of lung factor in rats; format: in vivo, rat; conditions: Bleo rats after 28 days of treatment, n = 6; Bleo group 9.45, normal 4.09
Experimental: as §1

[8] = system: rats having Bleo-induced pulmonary fibrosis; test: Hydroxyproline (Hyp) in lung tissue homogenates by ELISA; format: in vivo, rat; conditions: Bleo rats after 28 days of treatment; Bleo group 118.33, normal 76.43
Experimental: as §1

[9] = system: inflammatory factors IL-4, IL-6, IL-8, and IL-1β in BALF; test: Inflammatory factors in BALF by ELISA; format: in vivo, rat; conditions: Bleo rats after 28 days, compared with Bleo group
Experimental: as §1
In order to verity whether BA/AH-DPI can regulate the inflammatory process by modulating the secretion of cytokines, the application also measured the concentrations of inflammatory factors IL-4, IL-6, IL-8, and IL-1β in BALF to determine the protective and therapeutic effects of BA/AH-DPI in the pathogenesis of Bleo-induced idiopathic pulmonary fibrosis.
The above BALF supernatant was measured by enzyme-linked immunosorbent assay (ELISA) to detect the concentration levels of inflammatory factors IL-4, IL-6, IL-8, IL-1β, as well as IFN-γ and TGF-β1. […]

[10] = system: rats having Bleo-induced pulmonary fibrosis; test: Body weight changes in rats; format: in vivo, rat; conditions: days 1-28, compared with Bleo group
Experimental: as §1

## CC(C)C[C@H](N)C(=O)O [L-leu, L-leucine]
[1]
  D10: 9.39 μm
  D50: 50.97 μm
  D90: 84.70 μm
  SMD (Sauter mean diameter): 16.64 μm
  VMD (Volume median diameter): 49.54 μm
[1]; fraction of particles
  <3 μm: 3.80%
  <5 μm: 6.08%

## Cc1ccc(=O)n(-c2ccccc2)c1 [pirfenidone, Pirfenidone]
[2]
  Total protein concentration in BALF: 10.59 ± 1.47 mg/mL
[3]
  MPO activity in serum: significantly inhibited MPO activity
[4]
  EV (expiratory volume): 1.23 ± 0.30 mL
  PEF (maximal expiratory flow): 10.76 ± 5.93 mL/s
  PIF (maximal inspiratory flow): 12.52 ± 4.68 mL/s
  RT (relaxation time): 158.82 ± 63.19 ms
  TV (tidal volume): 1.22 ± 0.30 mL
  Te (expiratory duration): 265.48 ± 99.45 ms
  Ti (inspiratory duration): 180.56 ± 49.34 ms
[5]
  LDH content in lung tissue: significantly decreased
  MDA level in lung tissue: significantly decreased
  SOD antioxidant index in lung tissue: significantly increased
[6]
  Histopathology of lung tissue (HE staining): less fibrotic features and inflammatory infiltration
[7]
  Lung factor: 6.15 ± 0.84
[8]
  Hyp content in lung tissue: 83.40 pg/mL
[9]
  IL-1β level in BALF: significantly lower
  IL-4 level in BALF: significantly lower
  IL-8 level in BALF: significantly lower
[10]
  Body weight of rats: significantly different from that in the Bleo group from day 14
